# Assay results: article PMC3639963, “A New Class of Small Molecule Inhibitor of BMP Signaling” (PLoS ONE, 2013)
# What was measured:
# Assay in all cases: Nanosyn kinase profiling
# Type in all cases: biochemical
# Conditions in all cases: read-out: Percentage inhibition; for inhibition at 0.1 µM: 0.1 µM inhibitor; for inhibition at 1 µM: 1 µM inhibitor
# [1] = molecular target: T1, ALK (Homo sapiens, UniProt Q9UM73)
# T1 construct: purchased Nanosyn (enzymatic panel); SGC in-house recombinant human kinases (DSF panel); Invitrogen (ALK1-6)
# T1 sequence (Q9UM73 19-1620): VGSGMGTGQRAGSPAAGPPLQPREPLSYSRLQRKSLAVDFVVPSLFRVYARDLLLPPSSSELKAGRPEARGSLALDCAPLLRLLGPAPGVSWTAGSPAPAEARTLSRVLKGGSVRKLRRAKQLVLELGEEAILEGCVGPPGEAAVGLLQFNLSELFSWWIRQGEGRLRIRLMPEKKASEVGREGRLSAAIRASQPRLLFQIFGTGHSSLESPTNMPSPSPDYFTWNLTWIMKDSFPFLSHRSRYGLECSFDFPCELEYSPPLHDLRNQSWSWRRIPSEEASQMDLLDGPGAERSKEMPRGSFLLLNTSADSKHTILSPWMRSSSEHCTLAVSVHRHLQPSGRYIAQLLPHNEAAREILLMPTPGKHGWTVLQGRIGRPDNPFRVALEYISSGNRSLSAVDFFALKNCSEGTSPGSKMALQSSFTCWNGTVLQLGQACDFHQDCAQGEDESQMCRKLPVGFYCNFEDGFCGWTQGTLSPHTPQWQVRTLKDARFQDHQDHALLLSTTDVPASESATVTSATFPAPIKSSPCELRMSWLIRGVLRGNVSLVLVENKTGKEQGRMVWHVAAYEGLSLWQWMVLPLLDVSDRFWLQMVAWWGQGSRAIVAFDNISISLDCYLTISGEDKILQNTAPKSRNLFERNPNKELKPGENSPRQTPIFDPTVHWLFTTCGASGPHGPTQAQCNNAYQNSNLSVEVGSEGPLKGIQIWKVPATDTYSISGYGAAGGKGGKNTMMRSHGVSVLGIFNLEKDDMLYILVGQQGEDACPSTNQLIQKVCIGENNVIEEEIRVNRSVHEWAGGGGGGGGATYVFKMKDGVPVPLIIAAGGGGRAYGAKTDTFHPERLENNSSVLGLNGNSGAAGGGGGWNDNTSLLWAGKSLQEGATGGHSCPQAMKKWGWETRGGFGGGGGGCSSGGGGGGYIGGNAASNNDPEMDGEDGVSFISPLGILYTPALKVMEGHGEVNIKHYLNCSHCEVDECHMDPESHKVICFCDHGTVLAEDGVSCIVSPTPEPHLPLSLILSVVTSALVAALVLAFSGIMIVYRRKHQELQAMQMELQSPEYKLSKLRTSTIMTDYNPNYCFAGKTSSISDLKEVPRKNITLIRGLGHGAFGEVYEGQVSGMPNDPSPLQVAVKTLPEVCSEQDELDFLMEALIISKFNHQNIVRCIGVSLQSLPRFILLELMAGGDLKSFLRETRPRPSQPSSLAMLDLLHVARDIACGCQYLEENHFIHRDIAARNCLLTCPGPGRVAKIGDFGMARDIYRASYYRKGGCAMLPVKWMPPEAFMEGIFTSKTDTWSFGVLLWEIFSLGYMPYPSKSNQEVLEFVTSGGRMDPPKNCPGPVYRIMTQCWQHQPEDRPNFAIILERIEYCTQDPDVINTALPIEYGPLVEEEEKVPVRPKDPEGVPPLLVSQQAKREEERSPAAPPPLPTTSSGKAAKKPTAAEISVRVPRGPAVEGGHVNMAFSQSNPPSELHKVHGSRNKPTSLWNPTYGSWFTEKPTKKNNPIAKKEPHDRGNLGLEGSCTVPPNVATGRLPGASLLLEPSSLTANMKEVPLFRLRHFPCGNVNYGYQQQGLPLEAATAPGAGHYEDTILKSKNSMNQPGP
# Procedure, shortened: (§1)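 Percent inhibition of each kinase was measured with the inhibitor at 0.1 µM and at 1 µM, as part of a 200-kinase human selectivity panel.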
# [2] = molecular target: T2, FLT1 (Homo sapiens, UniProt P17948)
# T2 construct: purchased Nanosyn (enzymatic panel); SGC in-house recombinant human kinases (DSF panel); Invitrogen (ALK1-6)
# T2 sequence (P17948 27-1338): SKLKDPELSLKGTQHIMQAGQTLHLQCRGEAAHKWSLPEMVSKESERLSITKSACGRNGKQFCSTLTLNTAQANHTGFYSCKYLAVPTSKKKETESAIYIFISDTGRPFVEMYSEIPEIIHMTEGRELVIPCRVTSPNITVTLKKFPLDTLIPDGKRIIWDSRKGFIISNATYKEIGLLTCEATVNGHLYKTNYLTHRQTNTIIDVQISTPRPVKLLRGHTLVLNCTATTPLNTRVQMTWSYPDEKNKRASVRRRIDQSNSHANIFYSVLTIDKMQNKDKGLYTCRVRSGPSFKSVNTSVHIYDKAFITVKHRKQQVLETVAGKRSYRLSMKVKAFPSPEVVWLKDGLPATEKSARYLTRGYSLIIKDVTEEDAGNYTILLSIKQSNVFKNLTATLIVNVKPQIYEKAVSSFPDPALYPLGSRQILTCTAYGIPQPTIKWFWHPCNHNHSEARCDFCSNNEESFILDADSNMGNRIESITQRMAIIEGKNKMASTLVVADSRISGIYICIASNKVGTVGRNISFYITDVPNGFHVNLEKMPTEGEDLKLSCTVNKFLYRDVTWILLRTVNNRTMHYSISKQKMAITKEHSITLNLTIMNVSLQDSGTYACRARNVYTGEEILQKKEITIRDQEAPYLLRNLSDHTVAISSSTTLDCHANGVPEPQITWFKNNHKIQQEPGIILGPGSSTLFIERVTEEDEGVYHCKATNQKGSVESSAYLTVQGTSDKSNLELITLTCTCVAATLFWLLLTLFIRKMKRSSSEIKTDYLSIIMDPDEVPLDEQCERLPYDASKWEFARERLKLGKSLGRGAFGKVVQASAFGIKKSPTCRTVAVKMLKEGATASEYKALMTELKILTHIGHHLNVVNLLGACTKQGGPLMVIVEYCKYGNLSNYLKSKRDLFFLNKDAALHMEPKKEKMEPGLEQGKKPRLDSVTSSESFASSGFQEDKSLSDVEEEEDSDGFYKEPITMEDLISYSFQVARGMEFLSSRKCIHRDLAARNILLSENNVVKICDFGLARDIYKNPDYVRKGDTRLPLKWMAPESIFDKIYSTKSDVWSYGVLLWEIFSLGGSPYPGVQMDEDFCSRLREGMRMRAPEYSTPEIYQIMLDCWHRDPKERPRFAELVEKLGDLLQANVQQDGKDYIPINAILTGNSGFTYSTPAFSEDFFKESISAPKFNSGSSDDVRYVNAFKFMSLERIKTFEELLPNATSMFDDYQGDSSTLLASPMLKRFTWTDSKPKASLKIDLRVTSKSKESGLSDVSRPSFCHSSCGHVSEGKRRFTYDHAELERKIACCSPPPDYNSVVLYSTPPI
# Procedure, shortened: as §1
# [3] = molecular target: T3, PI3-K-α (Homo sapiens, UniProt P42336)
# T3 construct: purchased Nanosyn (enzymatic panel); SGC in-house recombinant human kinases (DSF panel); Invitrogen (ALK1-6)
# Procedure, shortened: as §1
# [4] = molecular target: T4, TBK1 (Homo sapiens, UniProt Q9UHD2)
# T4 construct: purchased Nanosyn (enzymatic panel); SGC in-house recombinant human kinases (DSF panel); Invitrogen (ALK1-6)
# T4 sequence (Q9UHD2 1-729): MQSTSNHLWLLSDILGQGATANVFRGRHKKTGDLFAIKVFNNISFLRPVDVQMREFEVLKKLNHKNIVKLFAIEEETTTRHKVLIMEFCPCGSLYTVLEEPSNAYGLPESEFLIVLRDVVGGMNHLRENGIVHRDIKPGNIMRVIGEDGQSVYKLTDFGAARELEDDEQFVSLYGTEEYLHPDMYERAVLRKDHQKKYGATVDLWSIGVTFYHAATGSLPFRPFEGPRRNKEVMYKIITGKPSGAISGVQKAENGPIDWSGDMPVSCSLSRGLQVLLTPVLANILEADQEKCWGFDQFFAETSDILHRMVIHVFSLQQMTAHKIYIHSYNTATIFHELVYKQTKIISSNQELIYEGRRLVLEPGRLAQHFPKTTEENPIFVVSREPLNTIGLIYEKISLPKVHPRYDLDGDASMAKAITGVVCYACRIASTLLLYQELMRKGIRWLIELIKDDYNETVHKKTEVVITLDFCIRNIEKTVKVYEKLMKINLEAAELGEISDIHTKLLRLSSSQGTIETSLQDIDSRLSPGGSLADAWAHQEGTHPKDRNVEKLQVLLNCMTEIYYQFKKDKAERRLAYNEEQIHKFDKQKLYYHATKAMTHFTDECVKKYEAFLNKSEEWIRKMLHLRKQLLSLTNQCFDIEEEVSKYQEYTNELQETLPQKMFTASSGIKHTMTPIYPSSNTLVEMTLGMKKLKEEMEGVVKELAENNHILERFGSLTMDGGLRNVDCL
# Procedure, shortened: as §1
# [5] = molecular target: T5, MST1 (Homo sapiens, UniProt Q13043)
# T5 construct: purchased Nanosyn (enzymatic panel); SGC in-house recombinant human kinases (DSF panel); Invitrogen (ALK1-6)
# T5 sequence (Q13043 1-487): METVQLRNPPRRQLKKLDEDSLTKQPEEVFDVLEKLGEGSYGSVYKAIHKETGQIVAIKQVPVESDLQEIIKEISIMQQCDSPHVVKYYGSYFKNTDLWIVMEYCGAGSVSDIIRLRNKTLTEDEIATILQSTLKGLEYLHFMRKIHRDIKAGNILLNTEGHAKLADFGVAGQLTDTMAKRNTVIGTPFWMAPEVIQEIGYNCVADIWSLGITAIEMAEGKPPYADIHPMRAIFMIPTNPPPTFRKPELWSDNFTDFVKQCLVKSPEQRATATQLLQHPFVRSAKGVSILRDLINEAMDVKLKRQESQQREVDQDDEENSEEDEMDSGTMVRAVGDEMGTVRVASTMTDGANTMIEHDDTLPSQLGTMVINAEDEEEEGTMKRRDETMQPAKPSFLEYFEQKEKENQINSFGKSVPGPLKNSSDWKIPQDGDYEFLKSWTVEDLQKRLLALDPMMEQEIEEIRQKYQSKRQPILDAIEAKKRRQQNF
# Procedure, shortened: as §1
# [6] = molecular target: T6, PKCθ (Homo sapiens, UniProt Q04759)
# T6 construct: purchased Nanosyn (enzymatic panel); SGC in-house recombinant human kinases (DSF panel); Invitrogen (ALK1-6)
# T6 sequence (Q04759 whole entry): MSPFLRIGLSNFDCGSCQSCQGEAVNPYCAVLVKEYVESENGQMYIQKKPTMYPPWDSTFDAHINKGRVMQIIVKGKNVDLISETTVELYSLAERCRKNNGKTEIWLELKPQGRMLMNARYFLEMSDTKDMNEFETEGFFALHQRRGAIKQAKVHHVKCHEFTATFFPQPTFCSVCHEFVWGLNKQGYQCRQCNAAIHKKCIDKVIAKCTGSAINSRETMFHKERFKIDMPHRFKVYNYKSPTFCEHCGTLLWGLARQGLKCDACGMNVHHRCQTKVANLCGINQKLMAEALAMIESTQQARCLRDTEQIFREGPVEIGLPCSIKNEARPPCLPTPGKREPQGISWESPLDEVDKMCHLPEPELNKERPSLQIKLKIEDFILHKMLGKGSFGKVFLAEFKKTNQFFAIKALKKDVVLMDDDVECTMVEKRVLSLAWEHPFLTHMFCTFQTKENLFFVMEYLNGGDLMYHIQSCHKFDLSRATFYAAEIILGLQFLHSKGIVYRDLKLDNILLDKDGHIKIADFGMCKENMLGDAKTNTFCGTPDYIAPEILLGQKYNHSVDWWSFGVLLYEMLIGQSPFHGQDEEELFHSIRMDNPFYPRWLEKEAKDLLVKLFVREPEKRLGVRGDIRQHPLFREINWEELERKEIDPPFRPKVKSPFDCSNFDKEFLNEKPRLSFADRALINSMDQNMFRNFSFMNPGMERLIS
# Procedure, shortened: as §1
# [7] = molecular target: T7, RSK2 (Homo sapiens, UniProt P51812)
# T7 construct: purchased Nanosyn (enzymatic panel); SGC in-house recombinant human kinases (DSF panel); Invitrogen (ALK1-6)
# T7 sequence (P51812 whole entry): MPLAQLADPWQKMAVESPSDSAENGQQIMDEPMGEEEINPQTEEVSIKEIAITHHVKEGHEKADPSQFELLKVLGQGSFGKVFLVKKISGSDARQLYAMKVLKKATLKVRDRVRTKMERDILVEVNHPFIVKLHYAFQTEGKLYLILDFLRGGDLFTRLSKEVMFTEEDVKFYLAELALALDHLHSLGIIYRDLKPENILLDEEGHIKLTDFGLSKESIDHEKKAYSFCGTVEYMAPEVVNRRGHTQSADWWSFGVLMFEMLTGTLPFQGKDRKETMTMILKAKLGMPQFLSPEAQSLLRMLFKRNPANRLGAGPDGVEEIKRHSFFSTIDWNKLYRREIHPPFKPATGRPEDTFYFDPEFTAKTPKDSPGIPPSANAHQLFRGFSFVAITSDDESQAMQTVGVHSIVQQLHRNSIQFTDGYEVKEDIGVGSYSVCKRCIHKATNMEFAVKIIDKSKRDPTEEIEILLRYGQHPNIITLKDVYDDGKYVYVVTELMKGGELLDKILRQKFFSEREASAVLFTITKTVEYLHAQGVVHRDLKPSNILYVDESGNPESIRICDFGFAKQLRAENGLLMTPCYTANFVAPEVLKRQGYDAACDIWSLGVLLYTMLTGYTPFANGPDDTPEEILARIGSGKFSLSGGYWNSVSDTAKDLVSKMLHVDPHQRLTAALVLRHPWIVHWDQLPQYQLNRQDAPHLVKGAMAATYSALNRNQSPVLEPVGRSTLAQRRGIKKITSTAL
# Procedure, shortened: as §1
# [8] = molecular target: T8, PAK6 (Homo sapiens, UniProt Q9NQU5)
# T8 construct: purchased Nanosyn (enzymatic panel); SGC in-house recombinant human kinases (DSF panel); Invitrogen (ALK1-6)
# Procedure, shortened: as §1
# [9] = molecular target: T9, P38α (Homo sapiens, UniProt Q16539)
# T9 construct: purchased Nanosyn (enzymatic panel); SGC in-house recombinant human kinases (DSF panel); Invitrogen (ALK1-6)
# T9 sequence (Q16539 whole entry): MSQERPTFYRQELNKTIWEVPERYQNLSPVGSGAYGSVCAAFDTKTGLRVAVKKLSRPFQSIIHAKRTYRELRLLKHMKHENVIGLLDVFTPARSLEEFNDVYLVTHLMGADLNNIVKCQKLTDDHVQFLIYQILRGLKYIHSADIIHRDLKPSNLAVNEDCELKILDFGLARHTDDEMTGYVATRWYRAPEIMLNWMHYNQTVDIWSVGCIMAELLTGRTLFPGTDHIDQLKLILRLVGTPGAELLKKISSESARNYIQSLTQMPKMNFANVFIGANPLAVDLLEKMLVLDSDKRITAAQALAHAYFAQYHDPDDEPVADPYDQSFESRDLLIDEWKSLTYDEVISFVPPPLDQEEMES
# Procedure, shortened: as §1
# [10] = molecular target: T10, p38δ (Homo sapiens, UniProt O15264)
# T10 construct: purchased Nanosyn (enzymatic panel); SGC in-house recombinant human kinases (DSF panel); Invitrogen (ALK1-6)
# T10 sequence (O15264 1-365): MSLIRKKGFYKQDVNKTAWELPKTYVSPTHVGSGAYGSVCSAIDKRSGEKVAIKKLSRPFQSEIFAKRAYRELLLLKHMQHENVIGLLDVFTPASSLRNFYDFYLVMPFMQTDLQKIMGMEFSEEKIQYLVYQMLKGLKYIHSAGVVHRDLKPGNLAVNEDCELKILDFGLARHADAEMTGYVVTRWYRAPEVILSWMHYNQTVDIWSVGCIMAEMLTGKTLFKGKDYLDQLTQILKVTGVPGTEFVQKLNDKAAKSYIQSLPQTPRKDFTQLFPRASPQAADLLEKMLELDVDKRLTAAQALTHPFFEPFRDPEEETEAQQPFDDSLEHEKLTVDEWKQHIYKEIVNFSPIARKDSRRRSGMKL
# Procedure, shortened: as §1
# [11] = molecular target: T11, CHEK1 (Homo sapiens, UniProt O14757)
# T11 construct: purchased Nanosyn (enzymatic panel); SGC in-house recombinant human kinases (DSF panel); Invitrogen (ALK1-6)
# T11 sequence (O14757 1-476): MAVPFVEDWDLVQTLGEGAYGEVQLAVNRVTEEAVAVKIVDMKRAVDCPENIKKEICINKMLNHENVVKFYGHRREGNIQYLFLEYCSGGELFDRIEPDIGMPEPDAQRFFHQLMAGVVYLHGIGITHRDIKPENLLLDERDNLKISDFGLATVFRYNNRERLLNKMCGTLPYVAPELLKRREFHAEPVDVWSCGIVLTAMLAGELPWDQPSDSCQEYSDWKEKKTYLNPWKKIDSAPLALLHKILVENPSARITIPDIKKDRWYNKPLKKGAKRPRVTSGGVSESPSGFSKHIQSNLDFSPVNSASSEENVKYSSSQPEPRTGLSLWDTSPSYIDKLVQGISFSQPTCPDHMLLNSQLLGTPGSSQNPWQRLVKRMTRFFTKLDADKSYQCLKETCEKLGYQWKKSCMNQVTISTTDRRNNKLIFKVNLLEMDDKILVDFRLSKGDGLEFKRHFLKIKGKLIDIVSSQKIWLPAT
# Procedure, shortened: as §1
Structure (SMILES),inhibition at 0.1 µM [1],inhibition at 1 µM [1],inhibition at 0.1 µM [2],inhibition at 1 µM [2],inhibition at 0.1 µM [3],inhibition at 1 µM [3],inhibition at 0.1 µM [4],inhibition at 1 µM [4],inhibition at 0.1 µM [5],inhibition at 1 µM [5],inhibition at 0.1 µM [6],inhibition at 1 µM [6],inhibition at 0.1 µM [7],inhibition at 1 µM [7],inhibition at 0.1 µM [8],inhibition at 1 µM [8],inhibition at 0.1 µM [9],inhibition at 1 µM [9],inhibition at 0.1 µM [10],inhibition at 1 µM [10],other results
"COc1cc(-c2cc(-c3cccc(O)c3)cnc2N)cc(OC)c1OC [K02288, 3-[6-amino-5-(3,4,5-trimethoxy-phenyl)-pyridin-3-yl]-phenol]",-1%,2.5%,0%,-2%,2.6%,2%,1.5%,3.7%,-1%,1.1%,0%,0.1%,0.8%,2.2%,0.8%,1.9%,-3%,1.5%,-3%,-3%,inhibition at 0.1 µM [11]: -1%; inhibition at 1 µM [11]: -2%
c1ccc2c(-c3cnn4cc(-c5ccc(N6CCNCC6)cc5)cnc34)ccnc2c1 [LDN-193189],3.7%,12%,0%,17%,2.1%,1.5%,4.5%,16%,4%,7.9%,1.4%,1.3%,1.2%,5.4%,8.8%,5.1%,4.4%,3.3%,1.8%,0.5%,inhibition at 0.1 µM [11]: 2.9%; inhibition at 1 µM [11]: 0.3%
